{
  "source": "ChEMBL document CHEMBL5154709",
  "about": "“Tetrazole derivatives bearing benzodiazepine moiety-synthesis and action mode against virulence of Candida albicans” (Eur J Med Chem, 2022)",
  "key": {"Candida albicans [1]": {"test_system": "Candida albicans", "experiment": "Antifungal against Candida albicans cnb1delta/cnb1delta mutant biofilm assessed as increase cell membrane permeability at 16 ug/ml incubated for 18 hrs by Rho123 and Hoechst 33342 double staining based confocal laser scanning microscopic analysis", "type": "functional, organism-based", "conditions": "dose 16.0 µg/ml"}, "Candida albicans [2]": {"test_system": "Candida albicans", "experiment": "Antifungal activity against Candida albicans SC5314 assessed as inhibition of fungal growth at 16 ug/ml incubated for 18 hrs by M27-A3 based microdilution method relative to control", "type": "functional"}, "Candida albicans [3]": {"test_system": "Candida albicans", "experiment": "Fungicidal activity against Candida albicans SC5314 assessed as inhibition of fungal growth incubated for 48 hrs by M27-A3 based microdilution method", "type": "functional"}, "Candida albicans [4]": {"test_system": "Candida albicans", "experiment": "Antifungal activity against Candida albicans SC5314 assessed as inhibition of fungal growth at 4 ug/ml incubated for 48 hrs by M27-A3 based microdilution method relative to control", "type": "functional"}, "Candida albicans [5]": {"test_system": "Candida albicans", "experiment": "Antifungal activity against Candida albicans SC5314 assessed as inhibition of fungal growth at 2 ug/ml incubated for 48 hrs by M27-A3 based microdilution method relative to control", "type": "functional"}, "Candida albicans [6]": {"test_system": "Candida albicans", "experiment": "Antifungal activity against Candida albicans SC5314 assessed as inhibition of fungal growth at 1 ug/ml incubated for 18 hrs by M27-A3 based microdilution method relative to control", "type": "functional"}, "Candida albicans [7]": {"test_system": "Candida albicans", "experiment": "Antifungal activity against Candida albicans SC5314 assessed as inhibition of fungal growth at 1 ug/ml incubated for 48 hrs by M27-A3 based microdilution method relative to control", "type": "functional"}, "Candida albicans [8]": {"test_system": "Candida albicans", "experiment": "Antifungal activity against Candida albicans SC5314 assessed as inhibition of fungal growth at 0.5 ug/ml incubated for 18 hrs by M27-A3 based microdilution method relative to control", "type": "functional"}, "Candida albicans [9]": {"test_system": "Candida albicans", "experiment": "Antifungal activity against Candida albicans SC5314 assessed as inhibition of fungal growth at 0.5 ug/ml incubated for 48 hrs by M27-A3 based microdilution method relative to control", "type": "functional"}, "Candida albicans [10]": {"test_system": "Candida albicans", "experiment": "Antifungal activity against Candida albicans SC5314 assessed as inhibition of fungal growth at 0.25 ug/ml incubated for 18 hrs by M27-A3 based microdilution method relative to control", "type": "functional"}, "Candida albicans [11]": {"test_system": "Candida albicans", "experiment": "Antifungal activity against Candida albicans SC5314 assessed as inhibition of fungal growth at 0.25 ug/ml incubated for 48 hrs by M27-A3 based microdilution method relative to control", "type": "functional"}, "Candida albicans [12]": {"test_system": "Candida albicans", "experiment": "Antifungal activity against Candida albicans SC5314 assessed as inhibition of fungal growth at 0.0625 ug/ml incubated for 18 hrs by M27-A3 based microdilution method relative to control", "type": "functional"}, "Candida albicans [13]": {"test_system": "Candida albicans", "experiment": "Antifungal activity against Candida albicans SC5314 assessed as inhibition of fungal growth at 0.03125 ug/ml incubated for 18 hrs by M27-A3 based microdilution method relative to control", "type": "functional"}, "Candida albicans [14]": {"test_system": "Candida albicans", "experiment": "Antifungal activity against Candida albicans SC5314 assessed as inhibition of fungal growth at 0.03125 ug/ml incubated for 48 hrs by M27-A3 based microdilution method relative to control", "type": "functional"}, "Candida albicans [15]": {"test_system": "Candida albicans", "experiment": "Induction of reactive oxygen species generation in Candida albicans SC5314 assessed as increase in ROS level at 16 ug/ml incubated for 18 hrs by DCFH-DA staining based flow cytometric analysis (reference value: 0.77+/- 0.4%)", "type": "functional", "conditions": "dose 16 µg/ml"}, "Candida albicans [16]": {"test_system": "Candida albicans", "experiment": "Induction of reactive oxygen species generation in Candida albicans cnb1delta/cnb1delta mutant assessed as increase in ROS level at 16 ug/ml incubated for 18 hrs by DCFH-DA staining based flow cytometric analysis (reference value: 4.7+/- 5.9%)", "type": "functional", "conditions": "dose 16 µg/ml"}, "Candida albicans [17]": {"test_system": "Candida albicans", "experiment": "Induction of reactive oxygen species generation in Candida albicans CNB1/cnb1delta mutant assessed as increase in ROS level at 16 ug/ml incubated for 18 hrs by DCFH-DA staining based flow cytometric analysis (reference value: 3.8+/- 4.2%)", "type": "functional", "conditions": "dose 16 µg/ml"}, "Candida albicans [18]": {"test_system": "Candida albicans", "experiment": "Antifungal against Candida albicans SC5314 biofilm co-cultured with African green monkey Vero cells assessed as lysosomal membrane permeabilization at 16 ug/ml incubated for 18 hrs by PI/acridine orange double staining based confocal laser scanning microscopic analysis", "type": "functional, organism-based", "conditions": "dose 16.0 µg/ml"}, "Candida albicans [19]": {"test_system": "Candida albicans", "experiment": "Antifungal against Candida albicans cnb1delta/cnb1delta mutant biofilm assessed as apoptotic cells by measuring lysosomal membrane permeabilization at 16 ug/ml incubated for 18 hrs by PI/acridine orange double staining based confocal laser scanning microscopic analysis", "type": "functional, organism-based", "conditions": "dose 16.0 µg/ml"}, "Candida albicans [20]": {"test_system": "Candida albicans", "experiment": "Antifungal against Candida albicans cnb1delta/cnb1delta mutant biofilm assessed as oxidative stress by measuring appearance of spherical cells at 16 ug/ml incubated for 18 hrs by PI/acridine orange double staining based confocal laser scanning microscopic analysis", "type": "functional, organism-based", "conditions": "dose 16.0 µg/ml"}, "Candida albicans [21]": {"test_system": "Candida albicans", "experiment": "Induction of macrophage-mediated Candida albicans SC5314 phagocytosis assessed as change in chitin at 16 ug/ml incubated for 18 hrs in presence of mouse RAW264.7 macrophages by PI/Acridine orange double staining based confocal laser scanning microscopic analysis", "type": "functional", "conditions": "dose 16.0 µg/ml"}, "[22]": {"experiment": "Cytotoxicity against human TR146 cells at more than 64 ug/ml measured after 24 hrs by XTT assay", "type": "toxicity, cell-based", "conditions": "tr146, 24 h, dose 64 µg/ml"}, "[23]": {"experiment": "Toxicity in Galleria mellonella larvae assessed as melanization of larvae at 16 ug/ml measured every 24 hrs upto 5 days relative to control", "conditions": "120 h, at 16 µg/mL, time < 5 day"}, "[24]": {"experiment": "Toxicity in Galleria mellonella larvae assessed as change in morphology at 16 ug/ml measured after 5 days by Hematoxylin and eosin staining", "conditions": "120 h, dose 16 µg/ml, time 5 day"}, "Candida albicans [25]": {"test_system": "Candida albicans", "experiment": "In vivo antifungal activity against Candida albicans SC5314 infected in Galleria mellonella larvae assessed as survival of larvae by measuring health score index at 16 ug/ml administered 1 hr prior to infection measured within 5 days by Hematoxylin and eosin staining", "type": "functional, organism-based", "conditions": "dose 16.0 µg/ml, time 5.0 day"}, "Candida albicans [26]": {"test_system": "Candida albicans", "experiment": "In vivo antifungal activity against Candida albicans SC5314 infected in Galleria mellonella larvae assessed as survival of larvae by measuring health score index at 16 ug/ml administered 1 hr post infection measured within 5 days by Hematoxylin and eosin staining", "type": "functional, organism-based", "conditions": "dose 16.0 µg/ml, time 5.0 day"}, "Candida tropicalis": {"test_system": "Candida tropicalis", "experiment": "Inhibition of ergosterol biosynthesis in Candida tropicalis C129 assessed as reduction in ergosterol level incubated for 18 hrs by spectrophotometric analysis", "type": "functional", "conditions": "dose 0.06-32 µg/ml, DDE = dose-dependent effect"}, "Candida albicans [27]": {"test_system": "Candida albicans", "experiment": "Antifungal activity against Candida albicans assessed as inhibition of fungal growth measured after 48 hrs by M27-A3 based broth microdilution", "type": "functional"}, "Candida albicans [28]": {"test_system": "Candida albicans", "experiment": "Effect on HSP90 expression in Candida albicans cnb1delta/CNB1 mutant assessed as decrease in relative expression of HSP90 gene level at 2 ug/ml incubated for 18 hrs by RT-PCR analysis", "type": "functional", "conditions": "dose 2.0 µg/ml"}, "Candida albicans [29]": {"test_system": "Candida albicans", "experiment": "Effect on HSP90 expression in Candida albicans cnb1delta/cnb1delta mutant assessed as fold increase in relative expression of HSP90 gene level at 2 ug/ml incubated for 18 hrs in presence of calcium chloride by RT-PCR analysis", "type": "functional", "conditions": "dose 2.0 µg/ml"}, "Candida albicans [30]": {"test_system": "Candida albicans", "experiment": "Downregulation of HSP90 gene expression in Candida albicans cnb1delta/cnb1delta mutant at 2 ug/ml incubated for 6 hrs in presence of calcium chloride by RT-PCR analysis", "type": "functional", "conditions": "dose 2.0 µg/ml"}, "Candida albicans [31]": {"test_system": "Candida albicans", "experiment": "Downregulation of HSP90 gene expression in Candida albicans cnb1delta/CNB1 mutant at 2 ug/ml incubated for 6 hrs in presence of calcium chloride by RT-PCR analysis", "type": "functional", "conditions": "dose 2.0 µg/ml"}},
  "note": "The source made the active and inactive calls. No cut-off for these calls is given here.",
  "data": [
    {"smiles": "O=C1CN=C(c2ccccc2Br)c2cc(F)ccc2N1CCCn1nnc(-c2ccccc2Cl)n1", "values": [
      {"measurement": "Activity", "setting": "Candida albicans [1]", "value": "Active"},
      {"measurement": "inhibition at 16 µg/mL", "setting": "Candida albicans [2]", "value": 100, "unit": "%"},
      {"measurement": "inhibition (INH)", "setting": "Candida albicans [3]", "value": 99.6, "unit": "%"},
      {"measurement": "inhibition at 4 µg/mL", "setting": "Candida albicans [4]", "value": 99.3, "unit": "%"},
      {"measurement": "inhibition at 2 µg/mL", "setting": "Candida albicans [5]", "value": 100, "unit": "%"},
      {"measurement": "inhibition at 1 µg/mL", "setting": "Candida albicans [6]", "value": 99.1, "unit": "%"},
      {"measurement": "inhibition at 1 µg/mL", "setting": "Candida albicans [7]", "value": 99.2, "unit": "%"},
      {"measurement": "inhibition at 0.5 µg/mL", "setting": "Candida albicans [8]", "value": 99.2, "unit": "%"},
      {"measurement": "inhibition at 0.5 µg/mL", "setting": "Candida albicans [9]", "value": 99.3, "unit": "%"},
      {"measurement": "inhibition at 0.25 µg/mL", "setting": "Candida albicans [10]", "value": 100, "unit": "%"},
      {"measurement": "inhibition at 0.25 µg/mL", "setting": "Candida albicans [11]", "value": 100, "unit": "%"},
      {"measurement": "inhibition at 0.0625 µg/mL", "setting": "Candida albicans [12]", "value": 99.2, "unit": "%"},
      {"measurement": "inhibition at 0.03125 µg/mL", "setting": "Candida albicans [13]", "value": 100, "unit": "%"},
      {"measurement": "inhibition at 0.03125 µg/mL", "setting": "Candida albicans [14]", "value": 100, "unit": "%"},
      {"measurement": "Activity", "setting": "Candida albicans [15]", "value": 24.4, "unit": "%"},
      {"measurement": "Activity", "setting": "Candida albicans [16]", "value": 2.95, "unit": "%"},
      {"measurement": "Activity", "setting": "Candida albicans [17]", "value": 4.9, "unit": "%"},
      {"measurement": "Activity", "setting": "Candida albicans [18]", "value": "Active"},
      {"measurement": "Activity", "setting": "Candida albicans [19]", "value": "Active"},
      {"measurement": "Activity", "setting": "Candida albicans [20]", "value": "Active"},
      {"measurement": "Activity", "setting": "Candida albicans [21]", "value": "Active"},
      {"measurement": "Activity", "setting": "[22]", "value": "Non-Toxic"},
      {"measurement": "Activity", "setting": "[23]", "value": 7, "unit": "%"},
      {"measurement": "Activity", "setting": "[24]", "value": "Non-Toxic"},
      {"measurement": "Activity", "setting": "Candida albicans [25]", "value": "Active"},
      {"measurement": "Activity", "setting": "Candida albicans [26]", "value": "Active"},
      {"measurement": "Activity", "setting": "Candida tropicalis", "value": "Dde"},
      {"measurement": "MIC", "setting": "Candida albicans [27]", "value": 64, "unit": "µg/mL"},
      {"measurement": "Activity", "setting": "Candida albicans [28]", "value": "Active"},
      {"measurement": "fold change (FC)", "setting": "Candida albicans [29]", "value": 4},
      {"measurement": "Activity", "setting": "Candida albicans [30]", "value": "Active"},
      {"measurement": "Activity", "setting": "Candida albicans [31]", "value": "Active"}
    ]}
  ]
}
